Square brackets hold non-standard residues; d marks the D form. Peptide text beside a SMILES is read from it.
Experiments:
[1] = Short-term stability testing: percentage recovery of CyPep-1 from formulations; conditions: 40° C., t=2 weeks
[2] = Saturated solubility of CyPep-1 in liquid excipients; type: physicochemical; conditions: 25° C.
Description: A sample of the saturated supernatant was examined using light microscopy with a magnification of 200-1000× using a LEICA® (Germany) DME light microscope. The saturated supernatant was mounted on a microscope slide and examined immediately using both polarised and non-polarised light for the presence of CyPep-1 crystals. The dilution (Step (vii)) was performed immediately after the centrifugation step. • (vii) Since the solubility of CyPep-1 in these excipients was unknown, an appropriate dilution was made to achieve a concentration of CyPep-1 in sample diluent (deionised water) that was above the limit of quantification of the HPLC method, prior to analysis. For excipients which were saturated following the addition of ca. 20 mg of CyPep-1 the following dilution was performed: • (a) Into a 10 mL volumetric flask ca. 50 mg of the saturated solution was weighed. • (b) The volumetric flask from Step (a) was made to volume with sample diluent (deionised water) and vortex mixed for 30 s. • (c) An aliquot of the diluted sample from Step (b) was transferred to an HPLC vial and analysed by HPLC as described above. • (viii) For excipients which were saturated following the addition of ca. 40 mg of CyPep-1 the dilution was performed as detailed in Step (vii), however a 20 mL volumetric flask was used. Stability Testing—Method

[3] = tested on: neoplastic cells; conditions: as shown in WO 2011/092347; cited from earlier work

Compound: CC[C@@H](C)[C@@H](NC(=O)[C@@H](C)NC(=O)[C@@H](CCCCN)NC(=O)[C@@H](C)NC(=O)[C@H](NC(=O)[C@@H](CCCNC(=N)N)NC(=O)[C@@H](CC(C)C)NC(=O)[C@H](NC(=O)[C@@H](CCCCN)NC(=O)CNC(=O)[C@@H](CCCNC(=N)N)NC(=O)[C@@H](CCCNC(=N)N)NC(=O)[C@@H](CCCNC(=N)N)NC(=O)[C@@H](CCC(N)=O)NC(=O)[C@@H](CCCNC(=N)N)NC(=O)[C@@H](CCCNC(=N)N)NC(=O)[C@@H](CCCCN)NC(=O)[C@@H](CCCCN)NC(=O)[C@@H](CCCNC(=N)N)NC(=O)CNC(=O)[C@H](N)Cc1ccc(O)cc1)[C@H](C)O)C(C)C)C(=O)N[C@H](Cc1ccc(O)cc1)C(=O)N[C@H](CCCCN)C(=O)N[C@H](CCCNC(=N)N)C(=O)N[C@H](Cc1ccc(O)cc1)C(=O)N[C@@H](C(=O)N[C@H](CCC(=O)O)C(=O)O)[C@H](C)CC [CyPep-1] (H-[dY]G[dR][dK][dK][dR][dR][dQ][dR][dR][dR]G[dK][dT][dL][dR][dV][dA][dK][dA][dI][dY][dK][dR][dY][dI][dE]-OH; N-terminus and C-terminus assumed)
- stability of CyPep-1 in cream and ointment formulations [1]: unstable
- saturated solubility of CyPep-1 ([2]; benzyl alcohol): more than 10 % w/w
- saturated solubility of CyPep-1 ([2]; deionised water (pH 4, 5, 6 or 7)): more than 10 % w/w
- saturated solubility of CyPep-1 ([2]; ethanol): more than 10 % w/w
- saturated solubility of CyPep-1 ([2]; phenoxyethanol): more than 10 % w/w
- cytotoxicity to neoplastic cells [3]: selectively cytotoxic

Source: US12599646B2, “Peptide-containing composition for use for treating neoplastic lesions” (CYTOVATION ASA, priority 2020, dated 2026)
